How the values were obtained:
Assay type in all cases: cell-based
NCI-H23 = assay: Anti-proliferation assay (CellTiter-Glo 2.0), combination index, NCI-H23
Procedure: (§1) Cell lines were obtained from ATCC or Health Science Research Resources Bank.
Each cell lines were collected by ordinary method, then suspended in indicated medium containing 10% fetal bovine serum in table 3. The number of cells seeded per well was set to 500 cells/20 μL. […] The concentration of each anti-cancer reagents set to 8 concentrations including 0 nM. After adding the medicine to the cells, the cells were further incubated at 37° C. for 3 days under 5% CO2. Cell survival rates were calculated by adding 20 μL of CellTiter-Glo(registered trademark) 2. 0 (Promega) solution to each well, incubating the cells at room temperature for 10 minutes, and then measuring the chemiluminescence intensity of each well using a plate reader (ARVO).
(§2) A combination index (CI) value at each combined concentration of the medicines was determined.

MV-4-11 = assay: Anti-proliferation assay (CellTiter-Glo 2.0), combination index, MV-4-11
Procedure: as §1
(§3) 384 well culture plate (781086, Greiner Bio-One International) was used for cell survival rate measurement assay. Each cell lines were collected by ordinary method, then suspended in indicated medium containing 10% fetal bovine serum in table 3. The number of cells seeded per well was set to 500 cells/20 μL. After incubation at 37° C. for 24 hours under 5% CO2, Compound 1 and additional compound having an antitumor effect or a vehicle (DMSO) was added to each well by using D300e Digital Dispenser (Tecan). The concentration of Compound 1 was set to 10 concentrations. The concentration of each anti-cancer reagents set to 8 concentrations including 0 nM. After adding the medicine to the cells, the cells were further incubated at 37° C. for 3 days under 5% CO2. Cell survival rates were calculated by adding 20 μL of CellTiter-Glo(registered trademark) 2. 0 (Promega) solution to each well, incubating the cells at room temperature for 10 minutes, and then measuring the chemiluminescence intensity of each well using a plate reader (ARVO).
as §2

RT4 = assay: Anti-proliferation assay (CellTiter-Glo 2.0), combination index, RT4
How it was run: (§4)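 Cells were seeded at 500 cells/well in medium with 10% FBS and exposed to agents at 8 concentrations including 0 nM, for 3 days at 37° C under 5% CO2. Survival was read by CellTiter-Glo 2.0 luminescence, and combination index was determined at each combined concentration.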

RMG-I = assay: Anti-proliferation assay (CellTiter-Glo 2.0), combination index, RMG-I
Procedure: as §1, §3, §2

NCI-H358 = assay: Anti-proliferation assay (CellTiter-Glo 2.0), combination index, NCI-H358
How it was run: as §4

MKN45 = assay: Anti-proliferation assay (CellTiter-Glo 2.0), combination index, MKN45
How it was run: as §4

[1] = Compound 1 41.2 + combination drug 111 nmol/L (1:2.7)
[2] = Compound 1 123 + combination drug 333 nmol/L (1:2.7)
[3] = Compound 1 370 + combination drug 1000 nmol/L (1:2.7)
[4] = Compound 1 1110 + combination drug 3000 nmol/L (1:2.7)
[5] = Compound 1 1.52 + combination drug 4.12 nmol/L (1:2.7)
[6] = Compound 1 13.7 + combination drug 37.0 nmol/L (1:2.7)
[7] = Compound 1 4.57 + combination drug 111 nmol/L (1:24)
[8] = Compound 1 13.7 + combination drug 333 nmol/L (1:24)
[9] = Compound 1 41.2 + combination drug 1000 nmol/L (1:24)
[10] = Compound 1 13.7 + combination drug 111 nmol/L (1:8.1)
[11] = Compound 1 41.2 + combination drug 333 nmol/L (1:8.1)
[12] = Compound 1 123 + combination drug 1000 nmol/L (1:8.1)
[13] = Compound 1 13.7 + combination drug 41.2 nmol/L (1:3)
[14] = Compound 1 41.2 + combination drug 123 nmol/L (1:3)
[15] = Compound 1 123 + combination drug 370 nmol/L (1:3)
[16] = Compound 1 370 + combination drug 1110 nmol/L (1:3)
[17] = Compound 1 1110 + combination drug 3330 nmol/L (1:3)
[18] = Compound 1 41.2 + combination drug 3330 nmol/L (1:81)
[19] = Compound 1 123 + combination drug 10000 nmol/L (1:81)
[20] = Compound 1 13.7 + combination drug 123 nmol/L (1:9)
[21] = Compound 1 41.2 + combination drug 370 nmol/L (1:9)
[22] = Compound 1 123 + combination drug 1110 nmol/L (1:9)
[23] = Compound 1 4.57 + combination drug 123 nmol/L (1:27)
[24] = Compound 1 13.7 + combination drug 370 nmol/L (1:27)
[25] = Compound 1 41.2 + combination drug 1110 nmol/L (1:27)
[26] = Compound 1 370 + combination drug 10000 nmol/L (1:27)
[27] = Compound 1 370 nmol/L + Abemaciclib 1110 nmol/L, molar ratio 1:3
[28] = Compound 1 1110 nmol/L + Abemaciclib 3330 nmol/L, molar ratio 1:3
[29] = Compound 1 3330 nmol/L + Abemaciclib 10000 nmol/L, molar ratio 1:3
[30] = Compound 1 4.57 nmol/L + Abemaciclib 123 nmol/L, molar ratio 1:27
[31] = Compound 1 13.7 nmol/L + Abemaciclib 370 nmol/L, molar ratio 1:27
[32] = Compound 1 41.2 nmol/L + Abemaciclib 1110 nmol/L, molar ratio 1:27
[33] = Compound 1 123 nmol/L + Abemaciclib 3330 nmol/L, molar ratio 1:27
[34] = combination effect, Compound 1 + Abemaciclib, molar ratio 1:27
[35] = Compound 1 1.52 nmol/L + Abemaciclib 41.2 nmol/L, molar ratio 1:27
[36] = Compound 1 13.7 nmol/L + Abemaciclib 41.2 nmol/L, molar ratio 1:3
[37] = Compound 1 41.2 nmol/L + Abemaciclib 123 nmol/L, molar ratio 1:3
[38] = Compound 1 123 nmol/L + Abemaciclib 370 nmol/L, molar ratio 1:3

COc1cc(N2CCC(N3CCN(C)CC3)CC2)ccc1Nc1ncc(Cl)c(Nc2ccccc2P(C)(C)=O)n1 [Brigatinib]
CI (NCI-H23; [1]): 0.689
Fa (NCI-H23; [1]): 0.0998
CI (NCI-H23; [2]): 0.353
Fa (NCI-H23; [2]): 0.2711
CI (NCI-H23; [3]): 0.447
Fa (NCI-H23; [3]): 0.5739
CI (NCI-H23; [4]): 0.614
Fa (NCI-H23; [4]): 0.8319
Description (combinatory effect by CI) (NCI-H23; Compound 1:combination drug molar ratio 1:2.7): Synergy (0.3-0.7)
CI (MV-4-11; [5]): 0.844
Fa (MV-4-11; [5]): 0.3537
CI (MV-4-11; [6]): 0.430
Fa (MV-4-11; [6]): 0.8161
CI (MV-4-11; [1]): 0.286
Fa (MV-4-11; [1]): 0.9418
CI (MV-4-11; [2]): 0.503
Fa (MV-4-11; [2]): 0.9637
CI (MV-4-11; [3]): 0.933
Fa (MV-4-11; [3]): 0.9768
CI (MV-4-11; [4]): 0.966
Fa (MV-4-11; [4]): 0.9918
CI (RT4; [7]): 0.536
Fa (RT4; [7]): 0.2537
CI (RT4; [8]): 0.558
Fa (RT4; [8]): 0.3969
CI (RT4; [9]): 0.459
Fa (RT4; [9]): 0.6106
Description (combinatory effect by CI) (RT4; Compound 1:combination drug molar ratio 1:24): Synergy (0.3-0.7)
CI (RMG-I; [10]): 0.462
Fa (RMG-I; [10]): 0.2251
CI (RMG-I; [11]): 0.493
Fa (RMG-I; [11]): 0.4905
CI (RMG-I; [12]): 0.963
Fa (RMG-I; [12]): 0.6133
Description (combinatory effect by CI) (RMG-I; Compound 1:combination drug molar ratio 1:8.1): Synergy (0.3-0.7)
CI (NCI-H358; [1]): 0.885
Fa (NCI-H358; [1]): 0.3039
CI (NCI-H358; [2]): 0.293
Fa (NCI-H358; [2]): 0.6017
CI (NCI-H358; [3]): 0.506
Fa (NCI-H358; [3]): 0.7788
CI (NCI-H358; [4]): 0.871
Fa (NCI-H358; [4]): 0.9063

COC(=O)c1ccc2c(c1)NC(=O)/C2=C(\Nc1ccc(N(C)C(=O)CN2CCN(C)CC2)cc1)c1ccccc1 [Nintedanib]
CI (MV-4-11; [13]): 0.479
Fa (MV-4-11; [13]): 0.7111
CI (MV-4-11; [14]): 0.370
Fa (MV-4-11; [14]): 0.9278
CI (MV-4-11; [15]): 0.706
Fa (MV-4-11; [15]): 0.9603
CI (MV-4-11; [16]): 0.617
Fa (MV-4-11; [16]): 0.9933
CI (MV-4-11; [17]): 0.770
Fa (MV-4-11; [17]): 0.9982
Description (combinatory effect by CI) (MV-4-11; Compound 1:combination drug molar ratio 1:3): Synergy (0.3-0.7)
CI (MKN45; [18]): 0.925
Fa (MKN45; [18]): 0.5044
CI (MKN45; [19]): 0.418
Fa (MKN45; [19]): 0.8817
Description (combinatory effect by CI) (MKN45; Compound 1:combination drug molar ratio 1:81): Synergy (0.3-0.7)
CI (RMG-I; [20]): 0.772
Fa (RMG-I; [20]): 0.2678
CI (RMG-I; [21]): 0.477
Fa (RMG-I; [21]): 0.4576
CI (RMG-I; [22]): 0.683
Fa (RMG-I; [22]): 0.6821
Description (combinatory effect by CI) (RMG-I; Compound 1:combination drug molar ratio 1:9): Synergy (0.3-0.7)
CI (NCI-H358; [23]): 0.837
Fa (NCI-H358; [23]): 0.0649
CI (NCI-H358; [24]): 0.576
Fa (NCI-H358; [24]): 0.1639
CI (NCI-H358; [25]): 0.580
Fa (NCI-H358; [25]): 0.3485
CI (NCI-H358; [26]): 0.858
Fa (NCI-H358; [26]): 0.9756
Description (combinatory effect by CI) (NCI-H358; Compound 1:combination drug molar ratio 1:27): Synergy (0.3-0.7)

CCN1CCN(Cc2ccc(Nc3ncc(F)c(-c4cc(F)c5nc(C)n(C(C)C)c5c4)n3)nc2)CC1 [Abemaciclib]
CI (NCI-H23; [27]): 0.292
Fa (NCI-H23; [27]): 0.3181
CI (NCI-H23; [28]): 0.420
Fa (NCI-H23; [28]): 0.5212
CI (NCI-H23; [29]): 0.031
Fa (NCI-H23; [29]): 0.9964
CI (MV-4-11; [30]): 0.592
Fa (MV-4-11; [30]): 0.5416
CI (MV-4-11; [31]): 0.494
Fa (MV-4-11; [31]): 0.8419
CI (MV-4-11; [32]): 0.654
Fa (MV-4-11; [32]): 0.9407
CI (MV-4-11; [33]): 0.951
Fa (MV-4-11; [33]): 0.9781
Description (MV-4-11; [34]): Synergy (0.3-0.7)
CI (MKN45; [30]): 0.665
Fa (MKN45; [30]): 0.1096
CI (MKN45; [32]): 0.647
Fa (MKN45; [32]): 0.5496
CI (MKN45; [33]): 0.698
Fa (MKN45; [33]): 0.7785
Description (MKN45; [34]): Synergy (0.3-0.7)
CI (RMG-I; [35]): 0.724
Fa (RMG-I; [35]): 0.1493
CI (RMG-I; [30]): 0.606
Fa (RMG-I; [30]): 0.2479
CI (RMG-I; [31]): 0.357
Fa (RMG-I; [31]): 0.4570
CI (RMG-I; [32]): 0.455
Fa (RMG-I; [32]): 0.5937
CI (RMG-I; [33]): 0.830
Fa (RMG-I; [33]): 0.6711
Description (RMG-I; [34]): Synergy (0.3-0.7)
CI (NCI-H358; [36]): 0.638
Fa (NCI-H358; [36]): 0.1857
CI (NCI-H358; [37]): 0.337
Fa (NCI-H358; [37]): 0.3529
CI (NCI-H358; [38]): 0.187
Fa (NCI-H358; [38]): 0.5769
CI (NCI-H358; [27]): 0.189
Fa (NCI-H358; [27]): 0.7183
CI (NCI-H358; [28]): 0.455
Fa (NCI-H358; [28]): 0.7441
CI (NCI-H358; [29]): 0.025
Fa (NCI-H358; [29]): 0.9724
